Here are results for 23 compounds from ChEMBL document CHEMBL1201862, “PubChem BioAssay data set” (2004).

One test concerns the target T1, Aminopeptidase N (Plasmodium falciparum FcB1/Columbia, UniProt O96935).
T1 sequence (O96935 whole entry): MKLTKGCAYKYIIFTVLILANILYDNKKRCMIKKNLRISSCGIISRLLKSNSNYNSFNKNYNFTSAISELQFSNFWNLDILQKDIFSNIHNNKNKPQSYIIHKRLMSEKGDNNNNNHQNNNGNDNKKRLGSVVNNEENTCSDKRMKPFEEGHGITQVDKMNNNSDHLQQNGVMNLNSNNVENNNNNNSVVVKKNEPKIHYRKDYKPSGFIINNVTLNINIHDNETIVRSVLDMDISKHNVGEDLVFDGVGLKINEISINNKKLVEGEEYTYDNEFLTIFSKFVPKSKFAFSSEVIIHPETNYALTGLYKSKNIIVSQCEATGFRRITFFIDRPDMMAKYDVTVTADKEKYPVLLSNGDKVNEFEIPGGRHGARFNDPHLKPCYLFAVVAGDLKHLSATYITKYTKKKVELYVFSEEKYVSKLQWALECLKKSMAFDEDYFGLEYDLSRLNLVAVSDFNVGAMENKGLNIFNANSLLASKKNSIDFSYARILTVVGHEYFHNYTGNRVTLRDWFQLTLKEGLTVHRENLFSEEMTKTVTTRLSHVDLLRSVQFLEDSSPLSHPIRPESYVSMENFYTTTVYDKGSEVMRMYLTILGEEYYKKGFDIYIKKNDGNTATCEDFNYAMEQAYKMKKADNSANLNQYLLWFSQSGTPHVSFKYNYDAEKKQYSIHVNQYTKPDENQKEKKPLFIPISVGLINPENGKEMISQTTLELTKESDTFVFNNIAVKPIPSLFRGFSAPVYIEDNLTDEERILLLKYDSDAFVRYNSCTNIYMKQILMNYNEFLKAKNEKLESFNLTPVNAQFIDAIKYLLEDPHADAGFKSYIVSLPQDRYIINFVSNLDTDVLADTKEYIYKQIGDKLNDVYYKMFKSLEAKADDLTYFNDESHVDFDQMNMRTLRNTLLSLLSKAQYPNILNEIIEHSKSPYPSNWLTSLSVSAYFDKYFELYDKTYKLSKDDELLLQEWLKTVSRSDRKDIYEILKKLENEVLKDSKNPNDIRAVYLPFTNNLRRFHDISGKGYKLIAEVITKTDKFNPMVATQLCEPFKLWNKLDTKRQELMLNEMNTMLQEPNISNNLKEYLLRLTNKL
Nature of the test: malaria alanyl aminopeptidase activity blockers – biochemical, fluorogenic H-Leu-NHMec substrate, 1536-well (AID 1445). The arrangement: species or system Plasmodium falciparum 3D7, 3D7.

Test [1] concerns the target Glyceraldehyde-3-phosphate dehydrogenase (Homo sapiens, UniProt P04406).
For test [2], the target named is T2, Alkaline phosphatase, tissue-nonspecific isozyme (Homo sapiens, UniProt P05186).
T2 sequence (P05186 whole entry): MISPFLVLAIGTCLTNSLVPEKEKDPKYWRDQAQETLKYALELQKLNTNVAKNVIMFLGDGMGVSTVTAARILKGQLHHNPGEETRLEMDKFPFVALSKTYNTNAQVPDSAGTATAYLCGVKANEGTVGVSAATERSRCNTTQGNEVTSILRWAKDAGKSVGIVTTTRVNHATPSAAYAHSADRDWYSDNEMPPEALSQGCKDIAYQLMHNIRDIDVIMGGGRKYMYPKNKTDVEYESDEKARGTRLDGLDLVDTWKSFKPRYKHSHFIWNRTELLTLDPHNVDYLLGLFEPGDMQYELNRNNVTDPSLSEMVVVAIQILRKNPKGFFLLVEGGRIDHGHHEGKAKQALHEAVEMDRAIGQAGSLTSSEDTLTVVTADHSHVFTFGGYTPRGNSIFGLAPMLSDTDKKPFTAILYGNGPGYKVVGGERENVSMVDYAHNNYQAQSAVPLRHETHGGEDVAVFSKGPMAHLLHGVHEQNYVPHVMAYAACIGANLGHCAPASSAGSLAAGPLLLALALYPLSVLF
Nature of the test: potency against alkaline phosphatase TNAP – biochemical, luminescent, dose response, SAR follow-up (AID 1056).

Test [3] addresses Heat shock protein HSP 90-alpha (Homo sapiens, UniProt P07900). It is filed as functional, organism-based.
For test [4], the target named is T3, Histone-lysine N-methyltransferase NSD2 (Homo sapiens, UniProt O96028).
T3 sequence (O96028 whole entry): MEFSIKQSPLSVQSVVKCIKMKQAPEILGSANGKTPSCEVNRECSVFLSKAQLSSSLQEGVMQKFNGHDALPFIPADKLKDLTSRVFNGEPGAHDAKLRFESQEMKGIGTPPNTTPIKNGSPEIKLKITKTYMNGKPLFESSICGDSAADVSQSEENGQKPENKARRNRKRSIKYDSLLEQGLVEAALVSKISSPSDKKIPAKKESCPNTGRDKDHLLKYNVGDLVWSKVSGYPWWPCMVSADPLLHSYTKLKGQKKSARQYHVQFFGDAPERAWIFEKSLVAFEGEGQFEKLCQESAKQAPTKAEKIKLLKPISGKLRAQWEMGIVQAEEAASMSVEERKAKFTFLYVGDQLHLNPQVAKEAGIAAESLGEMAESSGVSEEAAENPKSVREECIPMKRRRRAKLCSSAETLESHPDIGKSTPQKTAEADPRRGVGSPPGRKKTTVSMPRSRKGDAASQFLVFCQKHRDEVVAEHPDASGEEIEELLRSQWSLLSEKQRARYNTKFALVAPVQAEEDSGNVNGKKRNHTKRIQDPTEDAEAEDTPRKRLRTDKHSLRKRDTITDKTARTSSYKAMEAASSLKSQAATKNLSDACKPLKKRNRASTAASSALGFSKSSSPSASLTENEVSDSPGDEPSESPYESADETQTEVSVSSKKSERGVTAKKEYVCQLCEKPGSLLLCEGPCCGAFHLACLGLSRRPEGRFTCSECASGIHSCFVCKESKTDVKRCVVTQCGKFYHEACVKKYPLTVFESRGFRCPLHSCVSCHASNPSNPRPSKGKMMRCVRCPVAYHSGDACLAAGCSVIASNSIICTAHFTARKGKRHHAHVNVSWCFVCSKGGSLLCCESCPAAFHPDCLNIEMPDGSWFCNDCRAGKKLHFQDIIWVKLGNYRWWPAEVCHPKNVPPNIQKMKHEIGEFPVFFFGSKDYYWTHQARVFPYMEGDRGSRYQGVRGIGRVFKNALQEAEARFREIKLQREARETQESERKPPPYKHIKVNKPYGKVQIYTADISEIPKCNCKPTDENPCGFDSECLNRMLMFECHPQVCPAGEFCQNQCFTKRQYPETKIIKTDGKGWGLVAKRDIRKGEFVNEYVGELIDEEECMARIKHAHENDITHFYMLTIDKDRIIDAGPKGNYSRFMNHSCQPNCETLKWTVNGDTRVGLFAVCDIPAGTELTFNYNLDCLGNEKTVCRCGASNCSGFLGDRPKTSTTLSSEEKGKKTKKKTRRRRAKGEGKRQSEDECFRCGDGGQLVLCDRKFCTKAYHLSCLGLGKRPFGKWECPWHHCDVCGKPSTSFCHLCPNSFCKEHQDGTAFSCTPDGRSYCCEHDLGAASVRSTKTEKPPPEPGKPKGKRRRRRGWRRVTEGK
The class given is biochemical.

A short description of test [5]: viability of HCT116 lacking mutant beta-catenin – cell-based, human colon tumor, dose response (AID 1045).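 Note: HCT116 colon tumor cells with beta catenin knocked out; cells exposed to compound for 60 hours.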 The class given is functional.
The nature of test [6]: viability of PTEN-deleted HCT116 cells – cell-based, HCT116 PTEN knockout, dose response (AID 1047).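 Note: HCT116 colon tumor cells with PTEN knocked out; cells exposed to compound for 60 hours before readout; potency for loss of cell viability measured by luminescence.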 It is filed as functional.
Test [7] is described as follows: cells. It is filed as functional, cell-based.
Test [8] can be described thus: cells. It is filed as functional, cell-based. This is another data set of the same source.
Test [9] deals with T4, Heat shock factor protein 1 (Mus musculus, UniProt P38532).
T4 sequence (P38532 whole entry): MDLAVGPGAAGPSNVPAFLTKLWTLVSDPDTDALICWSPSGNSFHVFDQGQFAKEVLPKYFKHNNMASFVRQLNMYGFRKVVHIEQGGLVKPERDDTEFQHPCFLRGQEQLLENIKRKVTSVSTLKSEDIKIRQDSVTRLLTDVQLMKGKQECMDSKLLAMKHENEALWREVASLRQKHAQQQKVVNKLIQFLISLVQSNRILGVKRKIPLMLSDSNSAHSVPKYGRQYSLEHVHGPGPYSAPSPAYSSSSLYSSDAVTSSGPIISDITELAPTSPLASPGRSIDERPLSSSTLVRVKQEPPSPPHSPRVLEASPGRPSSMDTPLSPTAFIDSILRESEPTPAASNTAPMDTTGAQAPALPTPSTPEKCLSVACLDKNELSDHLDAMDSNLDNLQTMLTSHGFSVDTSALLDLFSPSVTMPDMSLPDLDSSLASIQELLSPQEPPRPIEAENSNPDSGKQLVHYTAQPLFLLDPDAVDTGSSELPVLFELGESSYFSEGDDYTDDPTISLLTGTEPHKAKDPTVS
Nature of the test: decrease of HSF1-responsive luciferase luminescence – cell-based, NIH3T3, dose retest, confirmation (AID 2382).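 Note: NIH3T3 fibroblasts with HSF1-driven luciferase reporter stressed by proteasome inhibitor MG132; luminescence from HSF1-driven luciferase expression after 8 hours of MG132 stress.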 It is filed as functional.

Test [10] can be described thus: microbe, parasite or virus in culture. The class given is functional. The note with it: Mycobacterium tuberculosis.
The target of the next test is Fatty acid synthase (Homo sapiens, UniProt P49327). The test can be described thus: inhibition of human FAS-TE enzyme activity – biochemical, kinetic fluorescence intensity, dose response (AID 624326).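 Note: rate of fluorescence rise from hydrolysis of a fluorogenic O-methyl fluorescein ester substrate.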 It is filed as functional.

Molecules are shown by their SMILES. Active and inactive are the calls of the source.

Sequence of Glyceraldehyde-3-phosphate dehydrogenase (P04406 whole entry): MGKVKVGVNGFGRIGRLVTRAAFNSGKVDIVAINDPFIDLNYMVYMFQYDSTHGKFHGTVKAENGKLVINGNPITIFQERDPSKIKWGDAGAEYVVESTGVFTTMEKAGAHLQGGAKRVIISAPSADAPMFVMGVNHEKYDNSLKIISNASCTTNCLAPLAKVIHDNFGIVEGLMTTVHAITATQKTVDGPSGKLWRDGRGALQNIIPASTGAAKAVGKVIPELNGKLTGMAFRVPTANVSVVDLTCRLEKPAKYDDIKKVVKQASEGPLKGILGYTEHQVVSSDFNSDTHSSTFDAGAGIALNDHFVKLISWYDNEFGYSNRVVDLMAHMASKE
Sequence of Fatty acid synthase (P49327 whole entry): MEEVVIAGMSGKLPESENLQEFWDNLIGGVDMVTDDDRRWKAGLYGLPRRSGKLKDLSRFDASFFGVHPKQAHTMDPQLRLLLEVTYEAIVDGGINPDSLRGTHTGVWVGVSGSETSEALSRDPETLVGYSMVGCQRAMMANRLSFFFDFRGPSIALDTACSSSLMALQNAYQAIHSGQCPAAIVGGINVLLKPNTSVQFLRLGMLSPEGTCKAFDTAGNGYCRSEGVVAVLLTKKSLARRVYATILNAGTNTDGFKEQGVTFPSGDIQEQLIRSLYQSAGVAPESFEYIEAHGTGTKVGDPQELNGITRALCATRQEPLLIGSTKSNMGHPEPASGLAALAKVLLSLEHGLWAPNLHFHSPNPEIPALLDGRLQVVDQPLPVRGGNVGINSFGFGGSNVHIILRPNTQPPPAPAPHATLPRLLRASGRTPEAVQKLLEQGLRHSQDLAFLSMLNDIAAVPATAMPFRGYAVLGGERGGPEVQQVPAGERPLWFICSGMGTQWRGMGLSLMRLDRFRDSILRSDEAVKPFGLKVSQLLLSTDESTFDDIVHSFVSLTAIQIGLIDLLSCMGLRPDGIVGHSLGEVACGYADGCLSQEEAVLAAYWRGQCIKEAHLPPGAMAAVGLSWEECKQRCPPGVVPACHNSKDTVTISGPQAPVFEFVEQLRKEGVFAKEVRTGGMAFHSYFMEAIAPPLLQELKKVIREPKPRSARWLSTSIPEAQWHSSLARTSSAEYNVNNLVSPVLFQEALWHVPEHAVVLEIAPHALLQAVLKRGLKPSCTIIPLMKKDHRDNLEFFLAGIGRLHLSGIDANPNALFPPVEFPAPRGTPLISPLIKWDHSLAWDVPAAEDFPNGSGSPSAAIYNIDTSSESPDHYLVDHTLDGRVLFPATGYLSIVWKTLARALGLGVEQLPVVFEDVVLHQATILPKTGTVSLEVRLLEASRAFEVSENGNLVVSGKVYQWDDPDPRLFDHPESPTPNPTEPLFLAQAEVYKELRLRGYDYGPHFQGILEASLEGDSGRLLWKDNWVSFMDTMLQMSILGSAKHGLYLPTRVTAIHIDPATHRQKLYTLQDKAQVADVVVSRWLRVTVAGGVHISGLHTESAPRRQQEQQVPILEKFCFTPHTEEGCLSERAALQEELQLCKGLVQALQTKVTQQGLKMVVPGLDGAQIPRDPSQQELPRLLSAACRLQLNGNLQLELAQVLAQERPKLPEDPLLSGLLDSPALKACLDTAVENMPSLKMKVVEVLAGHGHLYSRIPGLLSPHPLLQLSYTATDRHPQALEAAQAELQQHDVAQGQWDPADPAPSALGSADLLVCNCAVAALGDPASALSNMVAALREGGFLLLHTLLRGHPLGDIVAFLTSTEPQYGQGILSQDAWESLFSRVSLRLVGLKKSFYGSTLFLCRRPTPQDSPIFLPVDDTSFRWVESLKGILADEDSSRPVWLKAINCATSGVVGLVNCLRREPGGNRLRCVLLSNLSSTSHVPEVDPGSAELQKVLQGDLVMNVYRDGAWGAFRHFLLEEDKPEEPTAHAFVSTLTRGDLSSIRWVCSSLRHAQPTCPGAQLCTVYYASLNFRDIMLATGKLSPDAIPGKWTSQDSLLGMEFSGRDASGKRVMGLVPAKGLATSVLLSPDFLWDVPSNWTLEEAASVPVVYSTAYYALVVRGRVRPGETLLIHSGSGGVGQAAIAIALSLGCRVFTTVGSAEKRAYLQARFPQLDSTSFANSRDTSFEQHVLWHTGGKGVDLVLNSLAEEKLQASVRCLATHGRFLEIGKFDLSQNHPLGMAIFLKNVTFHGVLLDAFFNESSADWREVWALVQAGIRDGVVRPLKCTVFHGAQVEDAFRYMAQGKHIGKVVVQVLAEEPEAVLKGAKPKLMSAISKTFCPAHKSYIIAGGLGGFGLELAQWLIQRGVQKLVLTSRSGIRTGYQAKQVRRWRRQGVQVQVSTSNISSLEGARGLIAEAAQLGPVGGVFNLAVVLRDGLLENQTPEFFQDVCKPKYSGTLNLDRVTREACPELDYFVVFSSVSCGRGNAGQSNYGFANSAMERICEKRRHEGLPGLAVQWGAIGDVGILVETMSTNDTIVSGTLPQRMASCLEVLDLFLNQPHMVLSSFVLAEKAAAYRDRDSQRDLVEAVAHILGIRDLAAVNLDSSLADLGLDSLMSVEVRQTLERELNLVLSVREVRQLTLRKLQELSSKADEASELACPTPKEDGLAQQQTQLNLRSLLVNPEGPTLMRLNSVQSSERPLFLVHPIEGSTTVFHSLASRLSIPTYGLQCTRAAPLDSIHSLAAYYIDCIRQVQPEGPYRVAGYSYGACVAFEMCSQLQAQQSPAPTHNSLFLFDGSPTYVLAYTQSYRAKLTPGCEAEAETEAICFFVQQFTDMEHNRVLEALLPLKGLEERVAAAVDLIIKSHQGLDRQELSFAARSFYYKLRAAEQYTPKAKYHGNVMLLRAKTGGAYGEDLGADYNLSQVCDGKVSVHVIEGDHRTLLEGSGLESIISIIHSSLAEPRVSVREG

Regarding `CCOC(=O)c1[nH]cnc1C(=O)Nc1ccncc1`, the IC50 at Aminopeptidase N is 26 µM (active).

In the case of `CNC(=O)c1n[nH]c2c1COc1ccccc1-2`, the IC50 in test [1] was > 100 µM (not active); in [2], > 100 µM (inactive).

For `CCOCCCNC1=C(Cl)C(=O)c2ccccc2C1=O`, the AC50 in test [3] was 10.6 µM (active); in test [4] it was 12.3 µM (active).

For `CCOC(=O)c1[nH]c(CSc2nnc(-c3ccc(OC)cc3)o2)c(C(=O)OCC)c1C`, the concentration giving a half-maximal response (EC50) in [5] is 21.6 µM (active); in test [6], 20.8 µM (active).

For the compound `O=C(Cn1ccnc1)c1ccc(O)c(O)c1`, in test [2], the IC50 was > 100 µM (inactive).

Regarding `Cc1ccc(C)c(CSc2ncccc2C(=O)O)c1`, the IC50 at Aminopeptidase N is 77.7 µM (active).

In the case of `NCc1cc(-c2cccnc2)no1`, the half-maximal inhibitory concentration (IC50) is > 100 µM (not active) in test [1] and > 100 µM (inactive) in test [2].

With `CSc1nc(C)cc(C)c1C#N`, the concentration for a half-maximal effect (EC50) in “cells [7]” and in the test “cells [8]” was > 350 µM (not active) in each case.

Consider `O=C(c1ccc(-c2ccccc2)c(F)c1)C1CCCN(C(=O)c2cncs2)C1` (configuration not stated), for which the half-maximal activity concentration (AC50) in test [3] was 7.61 µM (active). Besides, the EC50 in [9] is > 195 µM (not active). Besides, the CC50 in test [10] is 32.9 µM (active).

As to `CC1(C(=O)NS(=O)(=O)c2ccc(C#N)cc2)CCN1C(=O)c1ccc(C2CCCCC2)cc1` (configuration not stated), the IC50 on Fatty acid synthase is 5.24 µM (active).

`Cc1ccc(S(=O)(=O)N2CCN(c3ccccn3)CC2)cc1`: the EC50 in “cells [7]” and in “cells [8]” was > 350 µM (not active) throughout.

Turning to `C=CCN1C(=O)c2ccccc2Sc2ccc(C(=O)N3CCN(C)CC3)cc21`, the EC50 in “cells [7]” and in the test “cells [8]” was > 350 µM (not active) in each case.

On to `COC(=O)Nc1ccc2c(c1)N(C(=O)CCN(C)C)c1ccccc1CC2`, for which, in test [4], the AC50 was > 20 µM (inactive).

With `Cc1cc(N2C(=O)c3ccc(C(=O)NCc4ccccc4)cc3C2=O)no1`, on Aminopeptidase N, the concentration for half-maximal inhibition (IC50) was 18.6 µM (active).

In the case of `Cc1onc(-c2ccccc2)c1NC(=O)N(Cc1ccccc1)C(C)C`, the EC50 in the test “cells [7]” and in the test “cells [8]” was > 350 µM (not active) in each case.

As for `O=S(=O)(c1ccc2ccccc2c1)n1ccc2ccccc21`, the 50% inhibitory concentration (IC50) was > 100 µM (not active) in test [1] and > 100 µM (inactive) in [2].

For the compound `c1cncc(-c2cc[nH]n2)c1`, the 50% inhibitory concentration (IC50) in test [1] is > 100 µM (not active); in test [2], > 100 µM (inactive).

For `Cc1ccc(-n2nnnc2SCC(=O)NC(C(=O)O)(c2ccccc2)c2ccccc2)cc1C`, the IC50 on Aminopeptidase N is 29.2 µM (active).

`Cc1cc(N2CCN(c3cccc(C)c3C)CC2)nc(-c2ccccc2)n1`: the AC50 in test [3] was 1.66 µM (active).

On to `Cc1ccc(-c2c(C)sc3ncn(CC(=O)N4CCOCC4)c(=O)c23)cc1C`, for which, on Aminopeptidase N, the IC50 was 12.4 µM (active).

For the compound `Cc1nn(-c2ccccc2)c2sc(C(=O)NNC(=O)COc3cccc4ccccc34)cc12`, the concentration giving a half-maximal response (EC50) in [5] was 19.3 µM (active); in test [6] it was 19.2 µM (active).

Turning to `CS(=O)(=O)c1sc2nc(-c3cccs3)cc(-c3ccccc3)c2c1N`, the 50% inhibitory concentration (IC50) on Aminopeptidase N is 81.1 µM (active).

Regarding `Cc1ccccc1N=C(S)NC(NC(=O)COc1ccccc1)C(Cl)(Cl)Cl` (configuration not stated), the figures for the concentration giving a half-maximal response (EC50) in test [5] and in test [6] were 31 µM (active) and 27.2 µM (active), respectively.
